Measured values taken from ChEMBL document CHEMBL3039007, “Structure-based identification of OATP1B1/3 inhibitors” (Mol Pharmacol, 2013).

Experiments:
[1] = target: T1, Solute carrier organic anion transporter family member 1B1 (Homo sapiens, UniProt Q9Y6L6); conditions: chinese hamster, cho, 10 µM
T1 sequence (Q9Y6L6 whole entry): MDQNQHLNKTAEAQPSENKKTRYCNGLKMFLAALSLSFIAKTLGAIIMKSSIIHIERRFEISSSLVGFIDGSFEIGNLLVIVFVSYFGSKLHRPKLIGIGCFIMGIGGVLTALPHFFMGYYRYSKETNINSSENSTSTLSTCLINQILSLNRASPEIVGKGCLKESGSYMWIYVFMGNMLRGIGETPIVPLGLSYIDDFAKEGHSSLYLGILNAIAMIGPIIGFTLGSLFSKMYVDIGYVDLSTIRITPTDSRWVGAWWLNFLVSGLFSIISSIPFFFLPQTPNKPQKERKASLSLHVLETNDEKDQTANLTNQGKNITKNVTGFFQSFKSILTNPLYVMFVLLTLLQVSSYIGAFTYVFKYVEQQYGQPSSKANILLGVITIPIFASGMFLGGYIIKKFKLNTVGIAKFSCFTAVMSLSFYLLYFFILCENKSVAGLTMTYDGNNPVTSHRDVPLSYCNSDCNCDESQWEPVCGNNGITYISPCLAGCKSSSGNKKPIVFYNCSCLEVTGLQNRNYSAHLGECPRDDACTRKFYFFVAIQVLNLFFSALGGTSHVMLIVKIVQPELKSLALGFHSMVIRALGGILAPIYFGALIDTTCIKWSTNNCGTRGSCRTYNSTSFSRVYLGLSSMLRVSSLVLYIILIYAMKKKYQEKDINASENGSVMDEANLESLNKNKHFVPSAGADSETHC

[2] = target: T2, Solute carrier organic anion transporter family member 1B3 (Homo sapiens, UniProt Q9NPD5); conditions: chinese hamster, cho, 10 µM
T2 sequence (Q9NPD5 whole entry): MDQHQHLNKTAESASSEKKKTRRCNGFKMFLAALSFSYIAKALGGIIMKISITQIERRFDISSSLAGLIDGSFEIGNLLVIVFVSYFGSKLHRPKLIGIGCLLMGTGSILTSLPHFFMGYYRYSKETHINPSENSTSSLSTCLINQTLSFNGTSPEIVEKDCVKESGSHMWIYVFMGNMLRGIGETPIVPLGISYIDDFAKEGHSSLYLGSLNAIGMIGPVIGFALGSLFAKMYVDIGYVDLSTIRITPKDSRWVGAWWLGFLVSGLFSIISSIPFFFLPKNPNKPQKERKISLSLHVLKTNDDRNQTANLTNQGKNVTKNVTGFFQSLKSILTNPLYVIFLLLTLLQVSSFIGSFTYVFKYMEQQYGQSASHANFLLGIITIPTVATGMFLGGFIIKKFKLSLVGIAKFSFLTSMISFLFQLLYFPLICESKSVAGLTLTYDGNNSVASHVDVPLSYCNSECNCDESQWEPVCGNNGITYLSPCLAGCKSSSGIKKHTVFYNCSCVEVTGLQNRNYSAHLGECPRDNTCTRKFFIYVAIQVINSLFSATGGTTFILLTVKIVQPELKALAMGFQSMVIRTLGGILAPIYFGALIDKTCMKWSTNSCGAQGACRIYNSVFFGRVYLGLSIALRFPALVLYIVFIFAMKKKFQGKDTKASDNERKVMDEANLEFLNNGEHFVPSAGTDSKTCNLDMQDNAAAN

SMILES | residual activity [1] [%] | residual activity [2] [%]
CC(=O)[C@@]1(O)CC[C@H]2[C@@H]3C[C@H](C)C4=CC(=O)C=C[C@]4(C)[C@@]3(F)[C@@H](O)C[C@@]21C [FLUOROMETHOLONE] | 85.71 | 105.7
Cc1c(NC(C)C)c(=O)n(-c2ccccc2)n1C [RAMIFENAZONE] | 105.5 | 89.79
COc1cc(O)c(C(C)=O)c(OC)c1 [XANTHOXYLIN] | 128.7 | 104.3
CCCCOc1ccc(OCCCN2CCOCC2)cc1.Cl [PRAMOXINE HYDROCHLORIDE] | 112 | 99.07
CC(=O)O[C@H]1CC[C@@]2(C)[C@H](CC[C@@H]3[C@@H]2CC[C@]2(C)[C@@H](C4=CC(=O)OC4)[C@@H](OC(C)=O)C[C@]32O)C1 [GITOXIGENIN DIACETATE] | 111.6 | 118.5
COc1c2c(cc3c1OCO3)CCN(C)C2 [HYDROCOTARNINE] | 77.76 | 98.91
C=C(C)[C@H]1Cc2c(ccc3c2O[C@@H]2COc4cc(OC)c(OC)cc4[C@@H]2C3=O)O1 [ROTENONE] | 23.22 | 43.86
CC1=NS(=O)(=O)c2cc(Cl)ccc2N1 [DIAZOXIDE] | 91.81 | 91.61
CCN(CC)CCOc1ccc(C(=C(Cl)c2ccccc2)c2ccccc2)cc1 [CLOMIPHENE] | 99.41 | 126.3
COc1cc(O)ccc1C(C)=O [ISOPEONOL] | 60.41 | 84.87
CCCCN(CC)c1c([N+](=O)[O-])cc(C(F)(F)F)cc1[N+](=O)[O-] [BENFLURALIN] | 96.31 | 100.4
C#C[C@]1(O)CC[C@H]2[C@@H]3CCC4=Cc5oncc5C[C@]4(C)[C@H]3CC[C@@]21C [DANAZOL] | 80.9 | 95.7
CC1(C)C2(Cl)C(Cl)C(Cl)C(Cl)(C(Cl)Cl)C1(Cl)C2Cl (centres undefined) [STROBANE] | 106.1 | 105.4
COC(=O)c1c(C)cc(OC(=O)c2c(C)cc(O)c(C=O)c2O)c(C)c1O [ATRANORIN] | 122.9 | 109.7
C[C@@H]1C(=O)O[C@H]2C[C@@]34[C@H]5C[C@@H](C(C)(C)C)[C@]36[C@@H](OC(=O)[C@@H]6O)O[C@@]4(C(=O)O5)[C@]21O [GINKGOLIDE A] | 103.7 | 113.8
c1coc(CNc2ncnc3[nH]cnc23)c1 [KINETIN] | 96.48 | 100.6
COC(=O)C(O)c1ccccc1 (centres undefined) [MANDELIC ACID, METHYL ESTER] | 97.92 | 76.32
CC(=O)OC(C)C[N+](C)(C)C.[Cl-] (centres undefined) [METHACHOLINE CHLORIDE] | 86.62 | 106.9
Cl.NCC(=O)CCC(=O)O [AMINOLEVULINIC ACID HYDROCHLORIDE] | 84.34 | 89.23
CC(C)NCC(O)COc1ccc(CC(N)=O)cc1 (centres undefined) [ATENOLOL] | 78.26 | 93.81
CC1=CC(=O)C2=C(C)C[C@H](O)[C@@H]3[C@H](OC(=O)[C@H]3C)[C@H]12 [AUSTRICINE] | 102.6 | 86.81
COc1ccc2c(c1OC)OC[C@@H](c1ccc(OC)c(OC)c1OC)C2 [DUARTIN, DIMETHYL ETHER] | 113.2 | 110.8
CCCC(=O)Nc1ncnc2c1ncn2[C@@H]1O[C@@H]2COP(=O)(O)O[C@H]2[C@H]1OC(=O)CCC [BUCLADESINE] | 116 | 88.95
CN(C)CCC(c1ccccc1)c1ccccn1.O=C(O)/C=C\C(=O)O (centres undefined) [PHENIRAMINE MALEATE] | 72.53 | 103.2

SMILES | residual activity [1] [%] | residual activity [2] [%]
COc1cc2c(cc1OC)[C@@H]1C(=O)c3ccc4c(c3O[C@@H]1CO2)CC(C(C)C)O4 (some centres undefined) [DIHYDROROTENONE] | 53.61 | 63.71
COc1cc2c(cc1OC)C(=O)OC2 [METAMECONINE] | 92.42 | 95.41
COc1cc2c(c(OC)c1OC)-c1ccc(OC)c(=O)cc1[C@@H](NC(C)=O)CC2 [COLCHICINE] | 75.12 | 101
CC(=O)[C@@]1(O)CC[C@H]2[C@@H]3C=C(Cl)C4=CC(=O)[C@@H]5C[C@@H]5[C@]4(C)[C@H]3CC[C@@]21C [CYPROTERONE] | 30.6 | 112.2
C=C1C2CC[C@H]3[C@]4(C)C[C@H](O[C@H]5O[C@H](CO)[C@@H](OS(=O)(=O)[O-])[C@H](OS(=O)(=O)[O-])[C@H]5OC(=O)CC(C)C)C[C@@H](C(=O)O)[C@H]4CC[C@]3(C2)[C@H]1O.[K+].[K+] | 100 | 92.24
CN1CCc2c(c3ccccc3n2Cc2ccccc2)C1.CN1CCc2c(c3ccccc3n2Cc2ccccc2)C1.O=S(=O)(O)c1cccc2c(S(=O)(=O)O)cccc12 | 69.52 | 77.15
COc1cc(OC)c2c(=O)c(-c3ccc4c(c3)OCO4)coc2c1 [DERRUSTONE] | 132.5 | 94.69
O=C(O)c1cc(O)c2ccc(Cl)cc2n1 [7-CHLOROKYNURENIC ACID] | 93.09 | 89.9
CC1(C)[C@H](O)CC(=O)[C@]2(C)[C@H]3CC[C@@]4(C)[C@H](c5ccoc5)OC(=O)[C@H]5O[C@]54[C@]3(C)C(=O)C[C@@H]12 | 33.49 | 61.45
CCn1cc(C(=O)O)c(=O)c2cc(F)c(N3CCN(C)CC3)cc21.CS(=O)(=O)O [PEFLOXACIN MESYLATE] | 123.1 | 95.74
CCC1(c2ccc(N)cc2)CCC(=O)NC1=O (centres undefined) [AMINOGLUTETHIMIDE] | 52.33 | 77
CC(=O)NC(C(=O)O)C(C)(C)SN=O (centres undefined) | 73.57 | 84.98
O=C(Oc1cc(OC(=O)c2ccccc2)c2c(c1)O[C@H](c1ccc(OC(=O)c3ccccc3)c(OC(=O)c3ccccc3)c1)[C@@H](OC(=O)c1ccccc1)C2)c1ccccc1 [CATECHIN PENTABENZOATE] | 113.2 | 118.6
c1ccc2c(c1)[nH]c1cnccc12 [NORHARMANE] | 95.1 | 87.66
C=C(C)[C@H]1CN[C@H](C(=O)O)[C@H]1CC(=O)O [KAINIC ACID] | 106.3 | 103.1
O=C(O)c1cc(O)c(=O)c2c(O)c(O)ccc2c1 [7-DESHYDROXYPYROGALLIN-4-CARBOXYLIC ACID] | 100.2 | 69.89
CCN(CC)CCNC(=O)c1ccc(NC(C)=O)cc1.Cl [ACECAINIDE HYDROCHLORIDE] | 70.32 | 90.6
O=c1oc2ccccc2c(O)c1Cc1c(O)c2ccccc2oc1=O [DICUMAROL] | 33.08 | 19.32
COc1cc(C)c2c(c1C=O)Oc1c(c(C)c(O)c3c1C(O)OC3=O)OC2=O (centres undefined) [STICTIC ACID] | 94.3 | 32.28
NS(=O)(=O)c1cc(C(=O)O)c(NCc2ccco2)cc1Cl [FUROSEMIDE] | 86.58 | 90.27
Clc1ccc(C(c2ccc(Cl)cc2)C(Cl)(Cl)Cl)cc1 [CHLOROPHENOTHANE] | 124.5 | 116.2
CC1=CC(=O)c2ccccc2C1=O [MENADIONE] | 157.5 | 112.1
COC(=O)[C@]1(C)CC[C@]2(C)CC[C@]3(C)C4=CC=C5C(=CC(=O)C(O)=C5C)[C@]4(C)CC[C@@]3(C)[C@@H]2C1 [PRISTIMERIN] | 112.2 | 99.45
